Results reported in patent US12551493B2, “Composition for enhancing therapeutic effect of stem cell, comprising immunosuppressant, and method for enhancing therapeutic effect of stem cell using same” (SAMSUNG LIFE PUBLIC WELFARE FOUNDATION, priority 2019, dated 2026).

Assays:
Assay type in all cases: in vivo
Iba-1 microglia = experiment: IHC of Iba-1 microglia in mouse brain after hMSC administration; settings: normal C57B/L6 mice, hMSCs plus immunosuppressant, day 7, compared to hMSC group
Experimental: (§1) On day 7 after administration of MEM or hMSCs, the brain was extracted by performing cardiac perfusion, and then fixed in PFA, and histological staining was performed by sectioning tissue.
(§2) MEM or hMSCs were administered to normal C57BL/6 and immunodeficient BALB/c nude mice under the same conditions as in Example 3. […]

helper T cells (CD4) = experiment: IHC of helper T cells (CD4) in mouse brain after hMSC administration; settings: normal C57B/L6 mice, hMSCs plus immunosuppressant, day 7, compared to hMSC group
Experimental: as §1, §2

[1] = test system: human-derived mesenchymal stem cells (hMSCs); experiment: qPCR of human-specific ALU DNA sequence in mouse brain (residual amount of hMSCs); settings: normal C57B/L6 mice, hMSCs plus immunosuppressant, compared to hMSC-alone administration group

C=CC[C@@H]1/C=C(\C)C[C@H](C)C[C@H](OC)[C@H]2O[C@@](O)(C(=O)C(=O)N3CCCC[C@H]3C(=O)O[C@H](/C(C)=C/[C@@H]3CC[C@@H](O)[C@H](OC)C3)[C@H](C)[C@@H](O)CC1=O)[C@H](C)C[C@@H]2OC [tacrolimus]
expression of Iba-1 (IHC) (Iba-1 microglia): not statistically significant | expression of CD4 (IHC) (helper T cells (CD4)): reduced | retention rate (survival rate) of stem cells (qPCR) [1]: enhanced
